Measured values reported in patent US20230110065A1, “COMBINATION OF ANETHOLE TRITHIONE OR ITS DERIVATIVE, 4-OH-ANETHOLE TRITHIONE, WITH DOXYCYCLINE OR MINOCYCLINE FOR THE USE THEREOF IN THE TREATMENT OF PARKINSON'S DISEASE” (priority 2020, published 2023).
“Also recorded” adds a separate entry of the source.

What was measured:
[1] = cited from earlier work
[2] = system: dopaminergic neurons in midbrain cultures; test: Survival of dopaminergic (TH+) neurons in midbrain cultures under low-noise, spontaneous oxidative stress; assay type: cell-based, mouse; conditions: 7 days, FIG. 8
Method: Midbrain cultures and immunodetection of tyrosine hydroxylase (TH): Mouse midbrain cultures were produced based on a protocol initially described by Troadec and colleagues (2001) and subsequently taken up by Rousseau and colleagues (2013). The cultures were generated from Swiss mouse embryos (Janvier LABS, Le Genest-St Isles) taken from the pregnant mother on day 13.5 of gestation. The cells dissociated from the midbrain were cultured in 48-well plates containing 500 µl of DMEM/HamF12 medium, supplemented with 10% fetal bovine serum (Biowest LLC, Les Ulis, France). Approximately 80-100 10^3 cells were added initially to each culture well. After one hour, the initial medium was replaced with the DMEM/HamF12 medium supplemented with 20 µg/mL of insulin. The culture medium (350 µl) and the treatments were renewed on days 1 and 3 in vitro. The cultures were maintained for a total of 7 days before binding and analysis. […] TH^+ neurons were counted according to a protocol described previously (Rousseau et al, 2013). The counts are expressed as % of the values obtained in the control cultures treated with apotransferrin.
Statistical analysis: The experimental data correspond to mean ± SEM values. […] The data were analyzed with the GraphPad Prism 8.3.1 software or Sigmaplot 12.5 software using One-Way ANOVA, followed by a post-hoc Student Newman Keuls test.

Parkinson's disease = test: Clinical case: person with Parkinson's disease; assay type: in vivo, human
Method: This therapeutic solution was tested on a person with Parkinson’s disease. A history of events over 3 years (current follow-up) is presented below:
Symptoms: At the very beginning of 2018, the first manifestations of Parkinson’s appeared: tremors in the left hand, slowing of walking pace, chaotic descent of stairs, tilting of the torso forward accompanied by back pain in the form of muscle contractures, as well as the beginnings of various obvious non-motor disorders (withdrawal, indifference, difficult decision-making, loss of joy in life, depression, etc.), constipation, hyposmia. Initially, ATT was tested as monotherapy.
Treatment: The problem then arose of deciding which dose to use. The patient was already taking ATT to treat a problem of benign prostatic hypertrophy (cf. patent WO2019/O73173) and used it with the greatest satisfaction at a dose of 3 cp to 25 mg, given in the morning and evening, but the dose turned out to be insufficient for treating Parkinson’s disease. A blood-brain barrier crossing problem was suspected and the decision was taken to increase this dose by 4 times by dividing it into 4 daily doses, i.e., 4 x 6 tablets/day (equivalent to 600 mg/day), so as to reduce concentration fluctuations as much as possible (the plasma half-life of ATT in humans is approximately 3 hrs).
Symptoms: In April-May 2019, unusual fatigue manifested when the patient performed strenuous tasks.
Treatment: Faced with worsening fatigue, the decision was taken, on Dec. 19, 2019, to add doxycycline at a dose of 50 mg every 6 hrs, which dose was intended to ensure stable concentrations in the LCR of approximately 0.9 µM/L (Dotevall, 1989; Karlsson, 1996), i.e., around 3 times what Gonzalez-Lizzaraga (2017) recommends.

[3] = in humans; cited from earlier work
[4] = system: microglia in culture activated by LPS (TLR4 agonist); test: TNF-a release (ELISA) in microglia in culture activated by LPS; assay type: cell-based, mouse
From the text: Purification of microglia: The cultures were produced from a cell suspension obtained by mechanical dissociation of the brains of newborn mice, C57BL/6J (Janvier LABS), according to a protocol described by Sepulveda-Diaz and colleagues (Glia, 2016) and modified subsequently by dos-Santos-Pereira and colleagues (Glia, 2020). The protocol used follows the directives of the Council of the European Union (2010/63/EU). It was approved by the Ethics Committee for Animal Experimentation, Charles Darwin no. 5. Corning culture flasks of 75 cm^2 precoated with a polycation, polyethyleneimine (PEI; 1 mg/mL) diluted in a borate buffer pH 8.3, were used so as to obtain spontaneous isolation of the microglial cells after 15-20 days of culture, this isolation taking place at the expense of other cell populations, in particular, astrocytes. In order to maintain the flask cultures, Dulbecco’s modified Eagle’s medium (DMEM) supplemented with 10% fetal bovine serum (FBS, Biowest LLC) and 1% penicillin/streptomycin cocktail was used (see experimental details described in the publication of Sepulveda-Diaz and colleagues). After the microglia purification step, the microglia adhering in the culture flasks were trypsinized to produce subcultures in 48-well multi-well Nunc plates. These cultures were maintained in the presence of DMEM, supplemented with 20 mM HEPES and 1% FBS. […]
(§1) Assessment of TNF-a levels: The culture medium of the microglia, recovered 24 hrs after the stimulation by the inflammogens was initiated, was then frozen at -20° C. until the analysis. TNF-a was detected with an ELISA kit from ThermoFisher (BMS607-3TWO), following the supplier’s instructions (dos-Santos-Pereira et al, Glia, 2020). The absorbance of each sample was measured at 450 nm with a SpectraMax i3X.
(§2) Statistical analysis: The experimental data were analyzed with the GraphPad Prism 8.3.1 software by applying a One-Way ANOVA test, followed by a post-hoc Student Newman Keuls test.

a-synuclein [5] = biological target: T1, a-synuclein (Homo sapiens, UniProt P37840); test: Transmission electron microscopy of a-synuclein aggregates; assay type: biochemical; conditions: ATX 10 µM
T1 construct: made in house; host or cells: Escherichia coli (plasmid pT7-7)
Method: Transmission electron microscopy: The a-synuclein samples, shaken in the optional presence of the treatments of interest, were characterized by transmission electron microscopy. Aliquots of 50 µl of each solution were used for this analysis. The sample preparation protocol is described in detail by Gonzalez-Lizarraga and colleagues (2020). Images were obtained with a transmission electron microscope, Philips EM 301.

a-synuclein [6] = biological target: T1, a-synuclein; test: Amyloid aggregation of a-synuclein by orbital shaking, Thioflavin-T test; assay type: biochemical; conditions: ATX 1, 10 or 100 µM, 600 rpm, 37° C., 96 h; FIG. 5B
Method: Preparation of a-synuclein: Human recombinant a-synuclein was produced from a strain of Escherichia coli carrying a plasmid pT7-7 containing the coding sequence of the protein (Kaylor et al, J Mol Biol, 2005; Gonzalez-Lizarraga et al, Sci Rep, 2020). After a purification step, the purity of the protein was evaluated by polyacrylamide gel electrophoresis under denaturing conditions (SDS-PAGE). The stock solution of a-synuclein was prepared in a buffer containing 20 mM of HEPES and 150 mM of NaCl at pH 7.4. Before initiating the aggregation protocol, the protein was centrifuged at 12000 g for 30 minutes in order to eliminate the micro-aggregates. The protein concentration was measured at 280 nm with a Nanodrop 8000 spectrophotometer (Gonzalez-Lizarraga et al, Sci Rep, 2020).
Aggregation of a-synuclein […]: The aggregation protocol was adapted from previous work (Kaylor et al, J Mol Biol, 2005; Gonzalez-Lizarraga et al, Sci Rep, 2020). Briefly, the aggregation of a-synuclein was obtained by orbital shaking (600 rpm; Thermomixer Comfort; Eppendorf), at 37° C. for 96 h, of the recombinant protein (70 µM) solubilized in 20 mM of HEPES and 150 mM of NaCl, pH 7.4. Dimethylformamide (DMF) was used to dilute ATX in this experimental protocol. The formation of aggregated structures was monitored by means of the Thioflavin-T (ThT) test (LeVine et al, Meth Enzymol, 1999).

[7] = system: microglia in culture activated by PAM3CSK4 (TLR2 agonist); test: TNF-a release (ELISA) in microglia in culture activated by PAM3CSK4; assay type: cell-based, mouse; conditions: PAM3CSK4 1 µg/mL, 24 hrs; FIG. 4
From the text: Purification of microglia: The cultures were produced from a cell suspension obtained by mechanical dissociation of the brains of newborn mice, C57BL/6J (Janvier LABS), according to a protocol described by Sepulveda-Diaz and colleagues (Glia, 2016) and modified subsequently by dos-Santos-Pereira and colleagues (Glia, 2020). The protocol used follows the directives of the Council of the European Union (2010/63/EU). It was approved by the Ethics Committee for Animal Experimentation, Charles Darwin no. 5. […]
as §1, §2

[8] = doxycycline 50 mg every 6 hrs; intended, from Dotevall, 1989; Karlsson, 1996; cited from earlier work

COc1ccc(-c2cc(=S)ss2)cc1 [ATT, anethole trithione]
Metabolization of ATT ([1]; He 2011, Li TM 2007, Li WY 2008): metabolizes almost immediately and completely into ATX via O-demethylation | ATT found in the patient's urine ([1]; over a 24-hour period): almost no ATT can be found | Protection as % of that of APO (apotransferrin) ([2]; 0.75 µM): 0.6% | Duration of satisfactory treatment (Parkinson's disease; ATT 150 mg, 4 times a day): 13 months | Duration of failure with the onset of new symptoms (Parkinson's disease; ATT 150 mg, 4 times a day, after the satisfactory period): 7 months | Side effects (Parkinson's disease; two years of treatment): no significant side effects have been noted during these two years of treatment, apart from intestinal meteorism | Plasma half-life [3]: approximately 3 hrs

Oc1ccc(-c2cc(=S)ss2)cc1 [ATX, 4-hydroxy-anethole trithione]
Release of TNF-a (inflammation marker), result in words ([4]; LPS 10 ng/mL, 24 hrs, FIG. 3): capable of inhibiting the release of TNF-a | Amyloid aggregation of a-synuclein seen by TEM (a-synuclein [5]): effectively reduces the amyloid aggregation of a-synuclein | Inhibition of a-synuclein aggregation (ThT fluorescence), result in words (a-synuclein [6]): effective, even at a low concentration; also recorded: effectively and concentration-dependently inhibiting the aggregation | Release of TNF-a (inflammation marker), result in words [7]: capable of inhibiting the release of TNF-a

C[C@H]1c2cccc(O)c2C(=O)C2=C(O)[C@]3(O)C(=O)C(C(N)=O)=C(O)[C@@H](N(C)C)[C@@H]3[C@@H](O)[C@@H]21 [DOX, doxycycline]
inhibition at 50 µM ([4]; Mus musculus, Microglia, LPS model, 50 µM of DOX, read-out: Inhibition of the release of TNFa): 50% | inhibition at 100 µM ([4]; Mus musculus, Microglia, LPS model, 100 µM of DOX, read-out: Inhibition of the release of TNFa): ~70% | Stable concentrations in the LCR [8]: approximately 0.9 µM/L | Protective effect as % of that of apotransferrin ([2]; DOX 7.5 µM): 27%

N[C@@H](Cc1ccc(O)c(O)c1)C(=O)O [L-DOPA]
Effect of introducing SINEMET (L-DOPA) on symptoms (Parkinson's disease; July 2019, patient on ATT 600 mg/day): solved the problem of loss of balance but the hand tremors only slightly improved and fatigue persisted
